The source made the active and inactive calls. Cut-off read from the data, not from the text of the source, for most assays here: actives have a measured EC50 and inactives only a lower limit.
How the values were obtained:
[1] = biological target: Luciferin 4-monooxygenase (Photinus pyralis, UniProt P08659); test: inhibition of purified Photinus pyralis luciferase – biochemical, luminescence, dose response (AID 1891)
[2] = Luminescence Cell-Based Dose Confirmation HTS to Identify Inhibitors of Platelet Dense Granule Release. [Related pubchem assays: 1663 (Primary HTS), 1678 (Summary of Project)]; format: functional
[3] = Luminescence Cell-Based Dose Confirmation HTS to Identify Activators of 5'UTR Stem-Loop Driven Alpha-Synuclein mRNA Translation in H4 Neuroglioblastoma Cells. [Related pubchem assays: 1829 (Project Summary), 1814 (Primary HTS)]; format: functional
[4] = Luminescence Cell-Based Dose Response HTS to Identify Activators of Luciferase Translation or Activity in H4 […] Cells. [Related pubchem assays: 1829 (Project Summary), 1814 (Primary HTS)]; format: functional
H4 = test: Luminescence Cell-Based Dose Response HTS to Identify Activators of 5'UTR Stem-Loop Driven Prion Protein mRNA Translation in H4 Neuroglioblastoma Cells. [Related pubchem assays: 1829 (Project Summary), 1814 (Primary HTS)]; format: functional; details: Homo sapiens
[5] = viability of uninfected HEp-2 cells – cell-based, HTS, cytotoxicity control for RSV inhibitor project, dose response (AID 2410); format: functional; details: human respiratory syncytial virus
Protein skinhead-1 = biological target: T1, Protein skinhead-1 (Caenorhabditis elegans, UniProt P34707); format: functional
T1 sequence (P34707 whole entry): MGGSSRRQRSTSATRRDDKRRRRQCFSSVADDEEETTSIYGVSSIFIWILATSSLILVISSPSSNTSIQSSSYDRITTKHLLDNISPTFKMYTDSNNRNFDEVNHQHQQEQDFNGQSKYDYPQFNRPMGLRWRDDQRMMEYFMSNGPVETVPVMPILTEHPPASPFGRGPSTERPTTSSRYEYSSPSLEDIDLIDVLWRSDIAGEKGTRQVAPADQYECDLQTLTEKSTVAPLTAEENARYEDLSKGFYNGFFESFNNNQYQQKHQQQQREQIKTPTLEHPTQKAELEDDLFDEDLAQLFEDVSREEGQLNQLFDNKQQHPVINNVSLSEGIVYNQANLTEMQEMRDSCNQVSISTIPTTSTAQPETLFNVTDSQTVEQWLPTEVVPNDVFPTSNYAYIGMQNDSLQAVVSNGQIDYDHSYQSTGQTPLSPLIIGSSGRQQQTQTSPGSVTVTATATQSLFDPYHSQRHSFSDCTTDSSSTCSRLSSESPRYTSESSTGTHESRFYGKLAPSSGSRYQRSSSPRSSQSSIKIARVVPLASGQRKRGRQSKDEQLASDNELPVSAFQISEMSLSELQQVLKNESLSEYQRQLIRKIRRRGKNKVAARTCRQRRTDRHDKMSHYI

Nonstructural protein 1 = Nonstructural protein 1 (Influenza A virus, UniProt Q194T2); format: functional, Influenza A virus (A/California/07/2009(H1N1))
Chain of Nonstructural protein 1 (Q194T2 whole entry): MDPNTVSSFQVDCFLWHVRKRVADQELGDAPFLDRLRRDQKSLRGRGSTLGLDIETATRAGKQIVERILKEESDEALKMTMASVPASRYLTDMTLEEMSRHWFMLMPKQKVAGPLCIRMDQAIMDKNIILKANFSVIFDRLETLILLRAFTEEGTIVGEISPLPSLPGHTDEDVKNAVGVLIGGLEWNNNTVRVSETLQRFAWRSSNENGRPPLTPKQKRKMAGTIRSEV

[6] = NIH-3T3 fibroblast cytotoxicity, dose response, cytotoxicity control, cell-based, fluorescence, Alamar Blue, secondary assay (AID 2327); format: functional;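 note: NIH-3T3 mouse fibroblasts cultured with fluconazole at 8 µg/mL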
[7] = luciferase reporter signal suppression in cells – H4 neuroglioma cells, luminescence, dose response (AID 1990); format: functional, cell-based
[8] = Luminescence Cell-Based Dose Response HTS to Identify Inhibitors of 5'UTR Stem-Loop Driven Prion Protein mRNA Translation in H4 Neuroglioblastoma Cells. [Related pubchem assays: 1827 (Project Summary), 1813 (Primary HTS)]; format: functional
[9] = alpha-synuclein stem-loop luciferase translation blockers – H4 neuroglioma cells, luminescence, confirmation (AID 1988); format: functional, cell-based
[10] = Trypanosoma cruzi growth suppression in host cells – NIH3T3 host cells, beta-gal luminescence, confirmation (AID 2044); format: functional, cell-based;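 note: intracellular parasites grown in NIH/3T3 mouse fibroblasts as host cells; luminescent beta-galactosidase reporter signal from transgenic T. cruzi replicating inside host cells; inhibitors lower the luminescence signal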
[11] = NIH3T3 cell viability loss – ATP luminescence, mouse fibroblasts, counter-screen, dose response (AID 2010); format: functional, cell-based;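 note: cells exposed to compound for about 90 hours before reading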
[12] = biological target: T2, Rac GTPase-activating protein 1 (Homo sapiens, UniProt Q9H0H5); test: blockers of MgcRacGAP-driven Rac1 GTP hydrolysis – biochemical, ADP Hunter fluorescence, primary and confirmatory, confirmation (AID 624330); format: functional
T2 sequence (Q9H0H5 whole entry): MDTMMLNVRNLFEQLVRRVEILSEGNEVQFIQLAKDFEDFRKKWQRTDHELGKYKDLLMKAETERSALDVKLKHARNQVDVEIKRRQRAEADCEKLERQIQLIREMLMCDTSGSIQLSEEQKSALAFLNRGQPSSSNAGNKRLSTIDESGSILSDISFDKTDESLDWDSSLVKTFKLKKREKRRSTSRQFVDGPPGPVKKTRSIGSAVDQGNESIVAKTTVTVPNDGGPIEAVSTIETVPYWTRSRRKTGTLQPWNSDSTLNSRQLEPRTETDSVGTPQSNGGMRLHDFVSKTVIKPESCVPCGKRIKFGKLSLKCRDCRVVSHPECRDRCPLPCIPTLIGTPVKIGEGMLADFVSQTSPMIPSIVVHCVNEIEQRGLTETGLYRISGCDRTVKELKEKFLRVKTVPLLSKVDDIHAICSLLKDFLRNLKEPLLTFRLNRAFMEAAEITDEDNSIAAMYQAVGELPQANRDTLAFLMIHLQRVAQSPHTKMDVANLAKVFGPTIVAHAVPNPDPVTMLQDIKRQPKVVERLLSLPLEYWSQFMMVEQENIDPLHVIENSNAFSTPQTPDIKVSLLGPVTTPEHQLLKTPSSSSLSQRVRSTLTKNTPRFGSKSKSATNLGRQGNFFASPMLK

Chain of Luciferin 4-monooxygenase (P08659 whole entry): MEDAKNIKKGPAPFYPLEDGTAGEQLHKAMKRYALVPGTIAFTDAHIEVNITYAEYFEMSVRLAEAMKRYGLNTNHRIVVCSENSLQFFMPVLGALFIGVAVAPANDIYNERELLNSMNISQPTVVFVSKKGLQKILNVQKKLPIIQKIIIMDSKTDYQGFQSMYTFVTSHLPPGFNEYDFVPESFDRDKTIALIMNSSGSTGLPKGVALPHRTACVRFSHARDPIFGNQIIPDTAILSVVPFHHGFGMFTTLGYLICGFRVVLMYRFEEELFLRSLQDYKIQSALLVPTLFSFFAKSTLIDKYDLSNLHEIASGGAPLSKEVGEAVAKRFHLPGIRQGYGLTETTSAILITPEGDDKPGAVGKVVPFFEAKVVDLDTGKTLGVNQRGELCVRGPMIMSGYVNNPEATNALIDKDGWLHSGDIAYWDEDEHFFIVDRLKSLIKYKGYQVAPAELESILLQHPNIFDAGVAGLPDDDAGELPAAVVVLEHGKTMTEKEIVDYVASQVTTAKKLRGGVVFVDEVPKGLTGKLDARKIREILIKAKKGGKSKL

Compound: O=C(Nc1ccccc1)c1cnc2ccccc2n1
- EC50 [1]: > 112 µM (not active)
- EC50 [2]: > 112 µM (not active)

Compound: COc1ccc2nc(NNC(=O)c3cc(=O)c4ccccc4o3)sc2c1
- EC50 [3]: 40.6 µM (active)
- EC50 [4]: 24.4 µM (active)
- EC50 (H4): 17.4 µM (active)

Compound: O=C(NCCOc1ccc(Cl)cc1)c1ccc2ccccc2n1
- CC50 [5]: 20.9 µM (active)
- IC50 (Protein skinhead-1): > 100 µM (inactive)

Compound: O=C1c2ccccc2-c2onc3c(N4CCN(CCO)CC4)cc(N4CCN(C(=O)c5ccco5)CC4)c1c23
- IC50 (Nonstructural protein 1): 9.93 µM (active)

Compound: CCCc1ccc(Oc2cc(Cl)nc(N)n2)cc1
- EC50 [3]: 8.77 µM (active)
- EC50 [4]: 11.8 µM (active)
- EC50 (H4): 72 µM (active)

Compound: Cc1ccc(S(=O)(=O)NCC2CCC(C(=O)NCc3ccc4c(c3)OCO4)CC2)cc1 (stereo not given)
- EC50 [1]: > 112 µM (not active)
- EC50 [2]: > 112 µM (not active)

Compound: c1ccc(NCc2nc(-c3ccccc3)no2)cc1
- EC50 [3]: 3.25 µM (active)
- EC50 [4]: 21.4 µM (active)
- EC50 (H4): 15.8 µM (active)

Compound: COc1ccc(-c2n[nH]c(S)n2)cc1
- EC50 [2]: > 112 µM (not active)

Compound: Cc1cc(C)cc(OCc2ccc(C(=O)N3N=C(C(F)F)CC3(O)C(F)F)o2)c1 (stereo not given)
- EC50 [6]: 120 µM (active)

Compound: FCCCOc1ccc(-c2nccc(-c3ccccn3)n2)cc1
- IC50 (Protein skinhead-1): 17.9 µM (active)

Compound: O=C1C[C@H]2[C@H](CO)[C@@H](OC(=O)c3ccc(-c4ccccc4)cc3)C[C@H]2O1
- EC50 [3]: 12.8 µM (active)
- EC50 [4]: 16.9 µM (active)
- EC50 (H4): 69.8 µM (active)

Compound: OC1CN=C2C=CC=CN2C1 (stereo not given)
- EC50 [1]: > 112 µM (not active)
- EC50 [2]: > 112 µM (not active)

Compound: CC(=O)Nc1cccc(Oc2cc(C#N)c(C#N)cc2N2CCCCCC2)c1
- EC50 [7]: 14.6 µM (active)
- EC50 [8]: > 120 µM (not active)
- EC50 [9]: > 120 µM (not active)

Compound: NC(Cc1nc(-c2ccc(Br)cc2)cs1)=NO
- EC50 [6]: > 150 µM (inactive)

Compound: COc1cc(NC(=O)CN2C(=O)C(c3ccccc3)=NC23CCCCCC3)cc(OC)c1
- EC50 [1]: > 112 µM (not active)
- EC50 [2]: > 112 µM (not active)

Compound: COc1ccc(C(c2sc3nc(C)nn3c2O)N2CCCCC2)cc1 (stereo not given)
- EC50 [1]: > 112 µM (not active)
- EC50 [2]: > 112 µM (not active)

Compound: CCOc1ccc2nc(NC(=O)CSc3nnc(-c4ccncc4)n3CC3CCCO3)sc2c1 (stereo not given)
- EC50 [3]: 7.45 µM (active)
- EC50 [4]: 8.04 µM (active)
- EC50 (H4): 11.8 µM (active)

Compound: CC(C)CNc1nc(N)c([N+](=O)[O-])c(NCc2ccccc2)n1
- EC50 [7]: 16.3 µM (active)
- EC50 [8]: > 120 µM (not active)
- EC50 [9]: 22.7 µM (active)

Compound: CN1CCc2c(sc3c2C(=O)NC(c2ccccc2)N3)C1 (stereo not given)
- IC50 (Protein skinhead-1): > 100 µM (inactive)

Compound: CCOC(=O)C1(C)C(N=Nc2ccc(Cl)cc2)=C(O)C(=O)N1c1ccccc1 (stereo not given)
- IC50 (Protein skinhead-1): > 100 µM (inactive)

Compound: Cn1ncc2cc(NC(=S)NC(=O)c3ccccc3)ccc21
- EC50 [3]: 13.8 µM (active)
- EC50 [4]: 21 µM (active)
- EC50 (H4): 83 µM (active)

Compound: Cc1nc(S)c(C#N)c(C)c1CCC#N
- EC50 [2]: > 112 µM (not active)

Compound: CONC=NC(=O)NOCc1ccc(Cl)cc1Cl
- EC50 [1]: > 112 µM (not active)
- EC50 [2]: > 112 µM (not active)

Compound: CC(C(=O)N(C)Cc1ccccc1)N1CCN(C/C=C/c2ccccc2)CC1 (stereo not given)
- EC50 [10]: 0.164 µM (active)
- EC50 [11]: > 30 µM (not active)
- IC50 [12]: 80.2 µM (active)

Compound: Cc1ccccc1NC(=O)CSc1nn2c(=O)c(C)nnc2s1
- IC50 (Nonstructural protein 1): 10.5 µM (active)

Source: ChEMBL document CHEMBL1201862, “PubChem BioAssay data set” (2004)
